Source: paper PMC10275055, “Preventing recurrence in Sonic Hedgehog Subgroup Medulloblastoma using the OLIG2 inhibitor CT-179” (Research Square, 2023)

Target: T1, OLIG2 dimerization (Homo sapiens, UniProt Q13516)
T1 construct: expressed in transfected cells; host or cells: HEK293
T1 sequence (Q13516 1-323): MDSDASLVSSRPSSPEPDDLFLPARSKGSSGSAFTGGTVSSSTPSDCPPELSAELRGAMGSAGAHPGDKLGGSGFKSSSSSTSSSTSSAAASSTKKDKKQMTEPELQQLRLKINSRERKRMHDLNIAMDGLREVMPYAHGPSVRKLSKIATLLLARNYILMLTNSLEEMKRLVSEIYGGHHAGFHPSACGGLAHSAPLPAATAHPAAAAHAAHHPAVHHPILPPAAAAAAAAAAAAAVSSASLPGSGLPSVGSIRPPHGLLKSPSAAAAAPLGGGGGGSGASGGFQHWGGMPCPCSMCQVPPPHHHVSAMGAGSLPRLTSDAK
Test: FCCS of OLIG2 dimerization in live HEK293 cells co-transfected with OLIG2-eGFP and OLIG2-Tomato
Type: cell-based
Method: HEK293 cells were maintained in a humidified atmosphere containing 5 % CO2 at 37 °C in Dulbecco’s Modified Eagle Medium supplemented with 10 % fetal bovine serum (FBS) and antibiotics (100 U/mL penicillin and 100 μg/mL streptomycin). One day before the transfection, HEK293 cells were split into Lab-Tek 8-well chambered Coverglass (Thermo Fisher Scientific). HEK293 cells on and 8-well chamber were transfected with plasmid DNA (OLIG2-eGFP and OLIG2-Tomato; or with eGFP and Tomato as negative control) using Lipofectamine 2000 (Thermo Fisher Scientific). After the transfection, HEK293 cells were cultured for 24 h at 37 °C. […]
CLSM imaging and FCCS measurements were performed using an LSM880 microscope system (Carl Zeiss, Germany) equipped with an Ar-ion laser with three lines: 458 nm, 488 nm and 514 nm, 543 nm He-Ne laser, and a water immersion objective lens (C-Apochromat, 40×, 1.2 N.A., Corr, Carl Zeiss), and a gallium arsenide phosphide (GaAsP) spectral array detector and photomultiplier tube (PMT) spectral array detector. eGFP and Tomato were excited using 488 nm laser and 543 nm laser, respectively. […] The emitted fluorescence was split by a diffraction grating and detected using a GaAsP detector (wavelength range 496–534 nm for eGFP) and a PMT detector (wavelength range 580–758 nm for Tomato). […]
Data acquired by FCCS was analyzed using the ZEN software (Carl Zeiss). […]

`Cc1cc(NCCCN(C)C)nc(NC(=O)Nc2ccc(Cl)c(Cl)c2)n1` [CT-179] was tested, and the “relative cross-correlation amplitude (RCA)” value (1 μM for one hour) was “significantly decreased” and the “allosteric factor, nallo” value (best fit of RCA dose-response curve) was −0.66.
